Article PMC12845261, “Design, Synthesis, and Biological Evaluation of N-Acyl-Hydrazone-Linked Quinazolinone Derivatives with Antioxidant, Antimicrobial, and Anticancer Potential” (Pharmaceuticals, 2025)
Converted amounts (≈) assume the structure as drawn.

What was measured:
[1] = Total antioxidant capacity (TAC), DPPH method; conditions: 30 min, 517 nm, compound stock 1 mg/mL in methanol, reference ascorbic acid TAC = 100%
Protocol: The total antioxidant capacity (TAC) was evaluated using diphenyl-1-picrylhydrazyl free radical (DPPH) method. The TAC value was determined in relation to the antioxidant capacity of the reference (ascorbic acid, TAC = 100%). […] The maximum value was recorded for 1c (~45%), followed by 1f and 1a (~43%), while the minimum for 1e (~19%).
In this study, the TAC values were obtained using the most-known DPPH method, in which the intense violet colour of the free radical solution is decreasing. Stock solutions of compounds 1a–1f and 2 were prepared in absolute methanol at a concentration of 1 mg/mL. A stock solution of 2,2-diphenyl-1-picrylhydrazyl free radical was obtained in the same solvent, at a concentration of 2 × 10^−4 M. To 1.8 mL of DPPH solution was added 0.2 mL of each solution of the compounds 1a–1f and 2 and the mixture was left in the dark for 30 min, followed by measurements of the absorbance at 517 nm. The following equation was used to calculate TAC: TAC%=Abs0 min−Abs30 min/Abs0min·100 where Abs0 min refers to the initial absorbance of the DPPH free radical solution, and Abs 30 min refers to the absorbance of the solution of DPPH and the added compound after 30 min. Ascorbic acid was used as a reference.

[2] = test system: HT-29 (human colorectal adenocarcinoma); assay: Cytotoxicity, MTT assay; type: cell-based; conditions: 24 h, tested range 3.125 to 50 µM
Protocol: (§1) For the cytotoxicity screening of the N-acyl-hydrazone derivatives, three cell lines were employed: HT-29 (human colorectal adenocarcinoma), A431 (human epidermoid carcinoma), and VERO (non-tumoral African green monkey kidney epithelial cells). All cell lines were obtained from the American Type Culture Collection (ATCC, Manassas, VA, USA), and maintained in appropriate culture media as follows: HT-29 and A431 cells were cultured in Dulbecco’s Modified Eagle Medium (DMEM), while VERO cells were cultured in Minimum Essential Medium (MEM). Both culture media were supplemented with 10% fetal bovine serum (FBS) and 1% penicillin-streptomycin mix, to formulate the complete culture medium. All cell lines were incubated at 37 °C in a humidified atmosphere containing 5% CO2. […] For the cytotoxicity screening, cells were seeded into sterile 96-well plates at an initial density of 1 × 10^4 cells/well and allowed to adhere for 24 h. Subsequently, cells were treated with increasing concentrations (3.125 to 50 µM) of compounds 1a–1f and 2 for 24 h. In parallel, 5-fluorouracil (5-FU, Sigma Aldrich, St. Louis, MO, USA) was included as a reference drug and tested over the same concentration range under identical experimental conditions. […] For the experimental control, culture medium was refreshed at the time of treatment application. […] Louis, MO, USA). Briefly, the culture media were discarded from each well and replaced with a fresh solution of MTT (1 mg/mL). Plates were incubated for 4 h at 37 °C, and the resulting formazan crystals were solubilized with isopropanol. The absorbance was measured at 550 nm using the FlexStation III multimodal reader (Molecular Devices, San Jose, CA, USA). All experiments were performed in triplicate and repeated in three independent assays. Cell viability was calculated as a percentage relative to the untreated control using the formula Cell Viability (%) = (Abs treated/Abs control) × 100. Data were processed using GraphPad Prism 6.0 and presented as mean ± standard deviation (SD). Statistical analysis was performed using one-way analysis of variance (ANOVA) followed by Dunnett’s post hoc test for comparison with the untreated control group.

[3] = test system: VERO (non-tumoral African green monkey kidney epithelial cells); assay: Cytotoxicity, MTT assay; type: cell-based; conditions: 24 h
Protocol: as §1

[4] = test system: C. albicans ATCC 10231; assay: Qualitative antimicrobial activity, adapted Kirby-Bauer (inhibition zone); type: cell-based; conditions: reference drug at 140 μg/mL
Protocol: (§2) For the evaluation of antimicrobial activity, the following reference strains were used: S. aureus ATCC 25923, E. faecalis ATCC 29212, E. coli ATCC 25922, P. aeruginosa ATCC 27853 and C. albicans ATCC 10231. The microbial suspensions were prepared at a density of 1.5 × 10^8 CFU/mL, corresponding to the McFarland 0.5 nephelometric standard. These suspensions were obtained from 18–24 h cultures developed on solid media (Mueller-Hinton for bacteria, Sabouraud for yeast). Antimicrobial activity was assessed using an adapted Kirby-Bauer method according to CLSI (Clinical and Laboratory Standards Institute). In addition to the 10 mg/mL stock solutions prepared in DMSO for each compound, a solvent control was used. Each stock solution (10 μL) was distributed in spot on the medium inoculated with the interest strain. After measuring the diameter of the inhibition zone (IZD) around the spot (mm), the results were expressed as the mean ± standard deviation (SD) for each compound tested in duplicate.

[5] = test system: C. albicans ATCC 10231; assay: Quantitative antimicrobial activity, serial binary microdilution (MIC, IC50); type: cell-based; conditions: Candida albicans, ATCC10231, reference drug
Protocol: (§3) For the evaluation of antimicrobial activity, the following reference strains were used: S. aureus ATCC 25923, E. faecalis ATCC 29212, E. coli ATCC 25922, P. aeruginosa ATCC 27853 and C. albicans ATCC 10231.
(§4) Quantitative analysis was performed using the method of serial binary microdilutions in liquid medium (Tryptone Soy Broth for bacteria and Sabouraud Broth for yeasts) in plates with 96 wells. Stock solutions of 10 mg/mL were made in DMSO, and the range of concentrations tested for each compound was 5000–0.16 μg/mL. Simultaneously, the DMSO control was carried out under the same working conditions. Each well was inoculated with 10 μL of microbial suspension, adjusted to a density of 1.5 × 10^8 CFU/mL prepared from 18 to 24 h cultures. After 24 h of incubation at 37 °C, microbial growth and multiplication were evaluated both macroscopically and spectrophotometrically at 620 nm to establish the MIC values. […] Blanks were made for each sample concentration, and the formula was applied: Microbial viability(%)=Asample−Ablank/Astrain control−Asterility control·100

[6] = test system: C. albicans ATCC 10231; assay: Microbicidal activity (MMC); type: cell-based; conditions: reference drug
Protocol: (§5) For the evaluation of antimicrobial activity, the following reference strains were used: S. aureus ATCC 25923, E. faecalis ATCC 29212, E. coli ATCC 25922, P. aeruginosa ATCC 27853 and C. albicans ATCC 10231. To determine the MMCs, 5 μL of culture was taken from each well and distributed on solid medium. The plates were incubated for 20–24 h at 37 °C. The lowest concentration at which no microbial growth was observed was considered MMC.

[7] = test system: C. albicans ATCC 10231; assay: Microbial adhesion, crystal violet (MICMA); type: cell-based; conditions: reference drug
Protocol: as §3
(§6) Following quantitative analysis of antimicrobial activity, microbial adhesion was evaluated after methanol fixation and violet crystal staining (0.1%). The absorbance of the adhered biomass colored with violet crystal and resuspended in 33% acetic acid was measured at 490 nm.

[8] = test system: E. coli ATCC 25922; assay: Qualitative antimicrobial activity, adapted Kirby-Bauer (inhibition zone); type: cell-based; conditions: reference drug at 100 μg/mL
Protocol: as §2

[9] = test system: E. faecalis ATCC 29212; assay: as above; type: cell-based; conditions: reference drug at 100 μg/mL
Protocol: as §2

[10] = test system: P. aeruginosa ATCC 27853; assay: as above; type: cell-based; conditions: reference drug at 100 μg/mL
Protocol: as §2

[11] = test system: S. aureus ATCC 25923; assay: as above; type: cell-based; conditions: reference drug at 100 μg/mL
Protocol: as §2

[12] = test system: E. coli ATCC 25922; assay: Quantitative antimicrobial activity, serial binary microdilution (MIC, IC50); type: cell-based; conditions: Escherichia coli, ATCC25922; E. coli ATCC 25922; reference drug
Protocol: as §3, §4

[13] = test system: E. faecalis ATCC 29212; assay: as above; type: cell-based; conditions: Enterococcus faecalis, ATCC29212, reference drug
Protocol: as §3, §4

[14] = test system: P. aeruginosa ATCC 27853; assay: as above; type: cell-based; conditions: Pseudomonas aeruginosa, ATCC27853, reference drug
Protocol: as §3, §4

[15] = test system: S. aureus ATCC 25923; assay: as above; type: cell-based; conditions: Staphylococcus aureus, ATCC25923; S. aureus ATCC 25923; reference drug
Protocol: as §3, §4

[16] = test system: E. coli ATCC 25922; assay: Microbicidal activity (MMC); type: cell-based; conditions: reference drug
Protocol: as §5

[17] = test system: E. faecalis ATCC 29212; assay: Microbicidal activity (MMC); type: cell-based; conditions: reference drug
Protocol: as §5

[18] = test system: P. aeruginosa ATCC 27853; assay: Microbicidal activity (MMC); type: cell-based; conditions: reference drug
Protocol: as §5

[19] = test system: S. aureus ATCC 25923; assay: Microbicidal activity (MMC); type: cell-based; conditions: reference drug
Protocol: as §5

[20] = test system: E. coli ATCC 25922; assay: Microbial adhesion, crystal violet (MICMA); type: cell-based; conditions: reference drug
Protocol: as §3, §6

[21] = test system: E. faecalis ATCC 29212; assay: Microbial adhesion, crystal violet (MICMA); type: cell-based; conditions: reference drug
Protocol: as §3, §6

[22] = test system: P. aeruginosa ATCC 27853; assay: Microbial adhesion, crystal violet (MICMA); type: cell-based; conditions: reference drug
Protocol: as §3, §6

[23] = test system: S. aureus ATCC 25923; assay: Microbial adhesion, crystal violet (MICMA); type: cell-based; conditions: reference drug
Protocol: as §3, §6

SMILES: O=C1O[C@H]([C@@H](O)CO)C(O)=C1O [ascorbic acid, reference compound]
- TAC (%) [1]: 100%

SMILES: O=c1[nH]cc(F)c(=O)[nH]1 [Compound 5-FU, 5-fluorouracil, reference compound]
- IC50 [2]: not reached within the tested concentration range
- Maximum reduction in viability ([3]; 50 µM): approximately 25%
- IC50 ([3]; tested range 3.125 to 50 µM): not reached within the tested range

SMILES: CC(=O)N1CCN(c2ccc(OCC3COC(Cn4ccnc4)(c4ccc(Cl)cc4Cl)O3)cc2)CC1 (stereo not drawn) [Ketoconazole, ketoconazole, reference compound]
- IZD (140 μg/mL, mm) [4]: 6.5 ± 0.71 mm
- MIC [5]: 8.75 µg/mL (≈ 16.5 µM)
- MMC [6]: 35 µg/mL
- MICMA [7]: 0.27 µg/mL

SMILES: O=C(O)c1cn(C2CC2)c2cc(N3CCNCC3)c(F)cc2c1=O [Ciprofloxacin, ciprofloxacin, reference compound]
- IZD (100 μg/mL, mm) [8]: 34.00 ± 2.00 mm
- IZD (100 μg/mL, mm) [9]: 8.33 ± 0.58 mm
- IZD (100 μg/mL, mm) [10]: 15.33 ± 0.58 mm
- IZD (100 μg/mL, mm) [11]: 17.33 ± 0.58 mm
- MIC [12]: 0.2 µg/mL (≈ 0.604 µM)
- MIC [13]: 0.78 µg/mL (≈ 2.35 µM)
- MIC [14]: 0.39 µg/mL (≈ 1.18 µM)
- MIC [15]: 0.78 µg/mL (≈ 2.35 µM)
- MMC [16]: 0.78 µg/mL
- MMC [17]: 6.25 µg/mL
- MMC [18]: 0.39 µg/mL
- MMC [19]: 1.56 µg/mL
- MICMA [20]: <0.10 µg/mL
- MICMA [21]: 0.78 µg/mL
- MICMA [22]: 0.39 µg/mL
- MICMA [23]: 0.39 µg/mL
